Converted amounts (≈) assume the structure as drawn.
Settings: buffer; pH 7.4; 200.0 µM

SMILES	solubility kinetic [µg/mL]
CCOc1ccccc1NC(=O)c1ccc2c(c1)C(=O)N(CC(C)C)C2=O	< 0.4
O=[N+]([O-])c1ccc2nc(NS(=O)(=O)c3ccccc3[N+](=O)[O-])sc2c1	55.7 (≈ 146 µM)
CC(C)CCNCC(O)CON=C1c2ccccc2-c2ccccc21 (stereo not given)	47.4 (≈ 140 µM)
CC1(C)CC(=O)C2=C(C1)NC(=O)NC2c1ccccc1Cl (stereo not given)	45.6 (≈ 150 µM)
COc1cc2c(cc1OC)C(C)N(C(=O)c1c(-c3ccccc3)noc1C)CC2 (stereo not given)	9 (≈ 22.9 µM)
O=C(COc1ccccc1O)NCCN1CCOCC1	> 42
O=C(CSc1nc(O)c(Cc2ccccc2)c(=O)[nH]1)c1ccccc1	> 52.9
O=C(COC(=O)c1ccccc1Br)NCC1CCCCC1	38.1 (≈ 108 µM)
CCC1CN(C(=O)NCc2ccccc2)c2cc(C)ccc2O1 (stereo not given)	3.8 (≈ 12.2 µM)
Cc1cc(C(=O)Nc2ccc(S(=O)(=O)N3CCCC3)cc2)no1	2.2 (≈ 6.56 µM)
COc1ccccc1C(=O)NC(C)c1cccc2ccccc12 (stereo not given)	18.7 (≈ 61.2 µM)
Cc1cccc(Nc2nc(N)nc(CCl)n2)c1	> 37.5
COc1ccc(NC(=O)c2cc3ccccc3o2)cc1OC	7.9 (≈ 26.6 µM)
Cc1cccc(C(=O)OCC(=O)NCC2CCCO2)c1O (stereo not given)	> 44
O=C(NCCN1CCCCC1)Nc1ccc(F)cc1F	> 42.5
Cc1ccccc1N1CCN(CCC(=O)Nc2ccc(F)cc2)CC1	39.9 (≈ 117 µM)
O=C(CN1C(=O)NC2(CCOc3ccccc32)C1=O)c1cccs1 (stereo not given)	> 51.4
CNC(=O)COC(=O)c1cc2c(s1)CCCC2	> 38
Cc1ccc(C(CC(=O)NCCCN(C)C)c2ccc(OC(C)C)cc2)cc1 (stereo not given)	52.9 (≈ 138 µM)
CCOC(=O)c1cc(C#N)c(N2CCCNCC2)nc1C(F)(F)F	> 51.3

SMILES	solubility kinetic [µg/mL]
CC1(C)OC(C)(C)/C(=C\c2ccccc2[N+](=O)[O-])C1=O	27.7 (≈ 101 µM)
O=C(COC(=O)c1cc(=O)[nH]c(=O)[nH]1)Nc1cccc(Cl)c1	> 48.6
CCn1c(SCC(=O)NCC2CCCO2)nc2ccccc21 (stereo not given)	> 47.9
O=C(Nc1sc2c(c1C(=O)O)CCC2)c1ccccc1Cl	41.1 (≈ 128 µM)
Nc1c(NCCc2ccccc2)c2ccccc2oc1=O	> 42
O=c1[nH]c2ccc([N+](=O)[O-])cc2nc1/C=C(\O)c1ccccc1	2.3 (≈ 7.44 µM)
O=C(CN1CCCCCC1)Nc1ccccc1OC(F)F	44.5 (≈ 149 µM)
COc1ccc(C(=O)c2ccc(-c3ccc(OC)cc3)nc2)cc1	< 0.7
CCc1ccccc1OCC(=O)OCC(=O)N1CC(=O)Nc2ccccc21	35.7 (≈ 96.9 µM)
Cc1ccccc1OS(=O)(=O)c1cn(C)c(=O)n(C)c1=O	> 46.5
CC1(C)C(=O)Nc2ccccc2N1C(=O)COC(=O)c1cccnc1Cl	> 56.1
CNCCc1ccccn1.Cl	> 31.4
Cc1cc(C)c(C)c(S(=O)(=O)N2CCN(C(=O)c3ccco3)CC2)c1C	4.1 (≈ 10.9 µM)
O=C(O)CC1(CC(=O)Nc2ccc3ccccc3n2)CCCCC1	> 49
CCN(Cc1ccccc1)C(=O)c1[nH]c2ccc(OC)cc2c1C	31.2 (≈ 96.8 µM)
Cn1c(=O)c2c(nc3n2CC(O)CN3c2ccccc2)n(C)c1=O (stereo not given)	> 49.1
CCCCCn1c(=O)c(C(=O)Nc2cccc(C)c2)c(O)c2ccccc21	< 0.4
COC(=O)C(Cc1ccccc1)NC(=O)CCNC(=O)c1ccco1 (stereo not given)	> 51.7
CC(=O)c1c(C)n(-c2ccc(C)cc2C)c2ccc(O)cc12	< 0.6
Cc1ccc(NC(=O)CCNC(=O)c2ccccc2)cc1F	2.9 (≈ 9.66 µM)

SMILES	solubility kinetic [µg/mL]
Oc1ccc(NCc2ccc(OCc3ccccc3)cc2)cc1	9.7 (≈ 31.8 µM)
CCOC(=O)NC(=S)Nc1ccc(C(C)(C)C)cc1Br	1.6 (≈ 4.45 µM)
CCCCNC(=O)CSc1nc(CCC)nc2ccccc12	4 (≈ 12.6 µM)
COc1cccc(C2N(Cc3ccccc3)C(=O)C2(F)F)c1OC (stereo not given)	15.2 (≈ 45.6 µM)
C(#Cc1ccccc1)CN1CCOCC1.Cl	> 35.7
CCC(Cc1ccccc1)NC(=O)C1CCCCC1 (stereo not given)	11.6 (≈ 44.7 µM)
COc1cc(NC(=O)CN2CCCCCC2)cc(OC)c1	> 43.9
CC1CN(C(=O)COC(=O)[C@@H](NC(=O)c2ccccc2Cl)C(C)C)CC(C)O1 (stereo not given in full)	58.5 (≈ 142 µM)
CC1(C)Oc2ccc3ccc(=O)oc3c2/C(=N/O)C1=O	> 41
O=C(Nc1ccc(CN2CCOCC2)cc1)c1cc(Br)ccc1Cl	57 (≈ 139 µM)
O=C(O)COCc1nc2ccccc2s1	31.7 (≈ 142 µM)
COc1ccc(S(N)(=O)=O)cc1C(=O)OCC(=O)Nc1sccc1C#N	15.1 (≈ 38.2 µM)
O=C(Nc1cc(Cl)ccn1)C1(c2ccccc2)CC1(Cl)Cl (stereo not given)	< 0.4
N#CC1=C(N)NC(=S)C(C(N)=O)C1c1ccc(Cl)cc1Cl (stereo not given)	11.7 (≈ 34.3 µM)
O=[N+]([O-])c1ccc(Nc2nccc(Cl)n2)cc1	1.4 (≈ 5.59 µM)
Cc1[nH]c2ccccc2c1C(=O)C(=O)Nc1ccc2c(c1)OCCO2	1.9 (≈ 5.65 µM)
CCCOc1c(Cl)cc(C(=O)NC)cc1OC	> 38.7
ClCC1CN(Cc2ccccc2Cl)CCO1 (stereo not given)	17.3 (≈ 66.5 µM)
CC(C)(C)c1ccc(C(=O)N2CCN(C(=O)c3cccs3)CC2)cc1	> 53.5

Further lines, results first:

solubility kinetic [µg/mL]	SMILES
< 0.3	CN(C(=O)c1ccco1)c1nc(-c2ccccc2)cs1
3.8 (≈ 14.7 µM)	C/C(=C\C(=O)c1ccc(Cl)cc1Cl)N(C)C
< 0.4	Cc1ccc(NC(=O)c2cc3cc(OC(F)(F)F)ccc3[nH]2)cc1
3.2 (≈ 9.13 µM)	CC(C)CCN(C(=S)Nc1cccc(F)c1)C(C)c1cccs1 (stereo not given)
> 41.1	CCOC(=O)c1cn2nc(N3CCCCC3)ccc2n1
> 47.5	Cc1ccc(C)c(NC(=O)CN(C)C(=O)c2sccc2C)c1
> 42.3	O=C(CS(=O)(=O)c1ccccc1)Nc1nccs1
1 (≈ 3.36 µM)	CCCNC(=O)COC(=O)c1ccc(-c2ccccc2)cc1
14 (≈ 39.6 µM)	Cc1cc(OCC(=O)OCC(=O)NCc2cccs2)ccc1Cl
1.2 (≈ 3.31 µM)	CCC(C)Nc1nc(N)c([N+](=O)[O-])c(Nc2cc(OC)ccc2OC)n1 (stereo not given)
> 46.1	CCN(CC)CC#CCC(O)(c1ccccc1)c1ccccc1
11.7 (≈ 45.1 µM)	Cc1ccc(C(=O)Cn2cc([N+](=O)[O-])nc2C)cc1
48.9	CC(CN1CCOCC1)OC(=O)c1ccc(Cl)cc1Cl.Cl (stereo not given)
> 49.1	COc1ccc(S(=O)(=O)NCC2CCC(C(=O)O)CC2)cc1 (stereo not given)
37.5 (≈ 130 µM)	O=C(c1ccccc1)N1CCSc2sccc2C1=O
> 47.9	Cc1ccc(NC(=O)CCC(=O)NNC(=O)C(C)(C)C)c(C)c1
> 61.4	CCN(CC(=O)NCc1cccs1)C(=O)c1cccc(S(=O)(=O)N(C)C)c1
> 51.7	COCCCn1c(=O)c2sccc2n(Cc2ccccc2C)c1=O
< 0.4	Oc1c(Cl)cc(Cl)cc1C1Nc2ccccc2-n2cccc21 (stereo not given)
> 44.1	O=c1[nH]cnc2c1C(c1ccccc1)c1c(nc[nH]c1=O)O2
0.4 (≈ 1.22 µM)	Cc1ccc(O)c(NC(=O)c2cc(-c3ccccc3Cl)on2)c1
7.5 (≈ 24.1 µM)	COC(=O)/C(C#N)=C/c1c(-c2ccccc2)nc2n1CCS2
> 52.4	COc1cccc(CNC(=O)CCN2C(=S)NC(C)(C)CC2C)c1 (stereo not given)
> 36.9	Cc1ccc2nc(-c3ccccn3)[nH]c2c1.Cl
> 53.5	O=C(COC(=O)c1ccc(Cl)nc1)Nc1ccccc1OC(F)F
50.5 (≈ 134 µM)	CC(O)CNc1nc2c(c(=O)n(Cc3cccc(Cl)c3)c(=O)n2C)n1C (stereo not given)
